Experimental data as given in ChEMBL document CHEMBL1201862, “PubChem BioAssay data set” (2004).
One block for each molecule: values may come before it. The source made the active and inactive calls.

Legend:
[1] = target: Sphingosine 1-phosphate receptor 4 (Homo sapiens, UniProt O95977); assay: potency of S1P4 activators – cell-based, fluorescence, synthesized compounds, late-stage follow-up (AID 463107); assay type: functional
[2] = luciferase reporter signal suppression in cells – H4 neuroglioma cells, luminescence, dose response (AID 1990); assay type: functional, cell-based
[3] = alpha-synuclein stem-loop luciferase translation blockers – H4 neuroglioma cells, luminescence, confirmation (AID 1988); assay type: functional, cell-based
X-box-binding protein 1 = X-box-binding protein 1 (Homo sapiens, UniProt P17861); assay type: functional, Cricetulus griseus;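 also: confirmatory dose-response counter-screen serving a CHOP assay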
Chain of X-box-binding protein 1 (P17861 whole entry, the tested form may be a part): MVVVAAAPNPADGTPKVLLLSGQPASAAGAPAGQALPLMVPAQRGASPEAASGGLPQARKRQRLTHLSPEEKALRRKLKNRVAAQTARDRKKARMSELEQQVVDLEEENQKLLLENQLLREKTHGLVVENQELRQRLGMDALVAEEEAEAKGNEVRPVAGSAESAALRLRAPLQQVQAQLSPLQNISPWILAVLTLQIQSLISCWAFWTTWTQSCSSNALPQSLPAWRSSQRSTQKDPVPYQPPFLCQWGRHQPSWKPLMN

[4] = target: T1, Type-1 angiotensin II receptor (Homo sapiens, UniProt P30556); assay: agonist activity at AGTR1 – cell-based, uHTS hits, selectivity assay for APJ receptor agonist project, dose response (AID 488865); assay type: functional;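 also: beta-arrestin recruitment to AT1 measured by enzyme fragment complementation luminescence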
T1 sequence (P30556 whole entry): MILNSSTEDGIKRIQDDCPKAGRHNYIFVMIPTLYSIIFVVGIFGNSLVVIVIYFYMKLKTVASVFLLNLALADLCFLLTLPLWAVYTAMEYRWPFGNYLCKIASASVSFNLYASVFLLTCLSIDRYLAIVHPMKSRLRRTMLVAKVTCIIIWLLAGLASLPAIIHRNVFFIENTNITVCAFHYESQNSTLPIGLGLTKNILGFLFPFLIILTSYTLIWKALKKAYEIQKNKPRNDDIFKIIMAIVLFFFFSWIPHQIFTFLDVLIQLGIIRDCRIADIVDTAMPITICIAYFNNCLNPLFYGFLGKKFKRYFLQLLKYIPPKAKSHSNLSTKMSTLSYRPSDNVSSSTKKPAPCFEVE

Mu-type opioid receptor = Mu-type opioid receptor (Homo sapiens, UniProt P35372); assay: SAR Analysis of Antagonists of the MOR Receptor using an Image-Based Assay - Set 3. [Related pubchem assays (depositor defined):AID1777, AID1785, AID1786, AID1966, AID2133, AID2136, AID2284, AID2285, AID2420]; assay type: functional
Chain of Mu-type opioid receptor (P35372 whole entry): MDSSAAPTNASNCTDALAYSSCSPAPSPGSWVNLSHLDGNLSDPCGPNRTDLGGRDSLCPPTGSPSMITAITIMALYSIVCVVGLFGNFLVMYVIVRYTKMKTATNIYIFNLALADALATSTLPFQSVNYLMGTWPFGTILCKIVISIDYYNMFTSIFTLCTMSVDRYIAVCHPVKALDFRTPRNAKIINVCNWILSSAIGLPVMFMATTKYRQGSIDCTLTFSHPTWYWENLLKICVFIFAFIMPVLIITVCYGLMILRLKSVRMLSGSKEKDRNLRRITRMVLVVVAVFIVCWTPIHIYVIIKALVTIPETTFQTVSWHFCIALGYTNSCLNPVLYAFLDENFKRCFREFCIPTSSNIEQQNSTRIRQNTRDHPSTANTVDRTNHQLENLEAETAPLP

[5] = target: Delta-type opioid receptor (Homo sapiens, UniProt P41143); assay: SAR Analysis of Antagonists of the DOR Receptor using an Image-Based Assay - Set 3. [Related pubchem assays (depositor defined):AID1777, AID1785]; assay type: functional;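 also: U2OS cells expressing DOR1 and beta-arrestin GFP stimulated with 100 nM SNC80; imaging of GFP-tagged beta-arrestin moving into spots after receptor activation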
Chain of Delta-type opioid receptor (P41143 whole entry): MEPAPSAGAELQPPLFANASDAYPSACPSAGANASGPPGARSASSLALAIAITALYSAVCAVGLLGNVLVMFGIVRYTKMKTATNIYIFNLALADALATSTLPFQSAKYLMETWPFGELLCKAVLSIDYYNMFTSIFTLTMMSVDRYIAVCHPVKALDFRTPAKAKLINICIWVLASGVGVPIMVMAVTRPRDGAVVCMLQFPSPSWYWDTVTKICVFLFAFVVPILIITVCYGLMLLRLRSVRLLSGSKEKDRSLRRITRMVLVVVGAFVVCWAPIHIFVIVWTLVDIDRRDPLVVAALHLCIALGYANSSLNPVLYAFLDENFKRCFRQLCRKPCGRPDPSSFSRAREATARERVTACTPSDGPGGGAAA

[6] = target: T2, Kappa-type opioid receptor (Homo sapiens, UniProt P41145); assay: SAR analysis of small molecule antagonists of the kappa opioid receptor via a luminescent beta-arrestin assay - Set 3. [Related pubchem assays (depositor defined):AID1777, AID1778, AID1785, AID1786, AID1966, AID2133, AID2136, AID2285, AID2495]; assay type: functional
T2 sequence (P41145 whole entry): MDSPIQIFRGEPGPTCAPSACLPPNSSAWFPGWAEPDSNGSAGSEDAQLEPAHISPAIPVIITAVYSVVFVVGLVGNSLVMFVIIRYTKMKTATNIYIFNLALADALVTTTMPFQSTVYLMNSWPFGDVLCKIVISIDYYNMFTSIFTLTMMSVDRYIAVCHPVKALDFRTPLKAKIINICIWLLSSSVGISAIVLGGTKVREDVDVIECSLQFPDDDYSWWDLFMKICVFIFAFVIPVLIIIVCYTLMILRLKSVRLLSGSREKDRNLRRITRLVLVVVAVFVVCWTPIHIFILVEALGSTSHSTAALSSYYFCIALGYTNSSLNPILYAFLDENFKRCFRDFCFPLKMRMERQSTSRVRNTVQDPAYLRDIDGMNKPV

[7] = target: T2, Kappa-type opioid receptor; assay: SAR analysis of Antagonists of the Kappa Opioid Receptor (KOR) using an Image-Based Assay - Set 3. [Related pubchem assays (depositor defined):AID1777, AID1785]; assay type: functional
Protein Rev = Protein Rev (Human immunodeficiency virus type 1 group M subtype B (isolate HXB2)(HIV-1), UniProt P04618); assay: blockers of HIV Rev/RRE RNA complex – biochemical, fluorescence polarization, HIV-1, dose response (AID 434976); parameters: species or system Human immunodeficiency virus 1
Chain of Protein Rev (P04618 whole entry): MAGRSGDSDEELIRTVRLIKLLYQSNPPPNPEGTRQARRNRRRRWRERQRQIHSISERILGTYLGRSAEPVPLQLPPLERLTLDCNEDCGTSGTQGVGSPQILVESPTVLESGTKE

[8] = target: Female germline-specific tumor suppressor gld-1 (Caenorhabditis elegans, UniProt Q17339); assay: blockers of GLD-1/TGE RNA complex formation – biochemical, fluorescence polarization, C. elegans, dose response (AID 2802);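 also: fluorescence polarization of labeled TGE RNA bound by purified gld-1 protein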
Chain of Female germline-specific tumor suppressor gld-1 (Q17339 whole entry): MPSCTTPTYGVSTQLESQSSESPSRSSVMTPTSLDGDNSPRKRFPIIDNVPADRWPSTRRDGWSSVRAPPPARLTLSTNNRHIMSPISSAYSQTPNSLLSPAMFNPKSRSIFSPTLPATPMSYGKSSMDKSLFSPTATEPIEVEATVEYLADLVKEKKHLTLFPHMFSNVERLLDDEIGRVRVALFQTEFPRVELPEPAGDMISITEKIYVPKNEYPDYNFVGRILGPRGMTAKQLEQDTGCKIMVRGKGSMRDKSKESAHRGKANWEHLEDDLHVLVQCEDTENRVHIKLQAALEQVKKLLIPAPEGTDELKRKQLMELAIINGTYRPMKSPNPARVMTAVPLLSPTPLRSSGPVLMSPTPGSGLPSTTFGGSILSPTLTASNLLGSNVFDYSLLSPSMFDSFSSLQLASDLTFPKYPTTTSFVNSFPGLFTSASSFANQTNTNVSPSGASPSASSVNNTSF

Chain of Sphingosine 1-phosphate receptor 4 (O95977 whole entry): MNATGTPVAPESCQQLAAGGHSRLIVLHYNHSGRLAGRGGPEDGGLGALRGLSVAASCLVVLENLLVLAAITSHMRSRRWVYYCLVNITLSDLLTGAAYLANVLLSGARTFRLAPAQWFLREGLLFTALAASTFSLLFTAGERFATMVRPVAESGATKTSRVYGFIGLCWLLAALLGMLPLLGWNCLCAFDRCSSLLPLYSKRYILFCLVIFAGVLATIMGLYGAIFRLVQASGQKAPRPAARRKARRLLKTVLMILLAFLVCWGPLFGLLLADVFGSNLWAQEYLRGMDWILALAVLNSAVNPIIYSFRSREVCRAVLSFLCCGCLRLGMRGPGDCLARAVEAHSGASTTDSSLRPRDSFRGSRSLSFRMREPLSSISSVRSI

Structure (SMILES): CC(C)Cn1c(=O)c2ccccc2n2c(SCC(=O)N3c4ccccc4CC3C)nnc12 (stereo unspecified)
EC50 [2]: 36 µM (active) | EC50 [3]: > 120 µM (not active) | Absolute IC50 (XBP1) (X-box-binding protein 1): 10 µM

Structure (SMILES): c1cc2c3c(cccc3c1)C(N1CCOCC1)=N2
IC50 (Protein Rev): 29.2 µM (not active) | IC50 [8]: 8.44 µM (active)

Other lines, results leading:

EC50 [1]: > 50 µM (inactive)
Structure (SMILES): Cc1ccc(OCCCOc2ccc(C)nc2[N+](=O)[O-])c([N+](=O)[O-])n1

EC50 [4]: > 100 µM (inactive)
Structure (SMILES): CC1CCN(S(=O)(=O)c2ccc3nc(N4CCN(c5ccccc5)CC4)ccc3c2)CC1

IC50 (Mu-type opioid receptor): > 32 µM (inactive) | IC50 [5]: > 32 µM (inactive) | IC50 [6]: 820 nM (active) | IC50 [7]: 523 nM (active)
Structure (SMILES): CCc1ccc(S(=O)(=O)NCc2ccc(C(=O)NCCN(Cc3ccc(Br)cc3)C(C)C)cc2)cc1
